Our source for the IC50 values is patent publication EP4667458A1 (Kanaph Therapeutics Inc., priority 2023, dated 2024).

The target in the first assay is T1, KRAS^G12C::SOS1 (Homo sapiens, UniProt Q07889).
T1 sequence (Q07889 1-1333): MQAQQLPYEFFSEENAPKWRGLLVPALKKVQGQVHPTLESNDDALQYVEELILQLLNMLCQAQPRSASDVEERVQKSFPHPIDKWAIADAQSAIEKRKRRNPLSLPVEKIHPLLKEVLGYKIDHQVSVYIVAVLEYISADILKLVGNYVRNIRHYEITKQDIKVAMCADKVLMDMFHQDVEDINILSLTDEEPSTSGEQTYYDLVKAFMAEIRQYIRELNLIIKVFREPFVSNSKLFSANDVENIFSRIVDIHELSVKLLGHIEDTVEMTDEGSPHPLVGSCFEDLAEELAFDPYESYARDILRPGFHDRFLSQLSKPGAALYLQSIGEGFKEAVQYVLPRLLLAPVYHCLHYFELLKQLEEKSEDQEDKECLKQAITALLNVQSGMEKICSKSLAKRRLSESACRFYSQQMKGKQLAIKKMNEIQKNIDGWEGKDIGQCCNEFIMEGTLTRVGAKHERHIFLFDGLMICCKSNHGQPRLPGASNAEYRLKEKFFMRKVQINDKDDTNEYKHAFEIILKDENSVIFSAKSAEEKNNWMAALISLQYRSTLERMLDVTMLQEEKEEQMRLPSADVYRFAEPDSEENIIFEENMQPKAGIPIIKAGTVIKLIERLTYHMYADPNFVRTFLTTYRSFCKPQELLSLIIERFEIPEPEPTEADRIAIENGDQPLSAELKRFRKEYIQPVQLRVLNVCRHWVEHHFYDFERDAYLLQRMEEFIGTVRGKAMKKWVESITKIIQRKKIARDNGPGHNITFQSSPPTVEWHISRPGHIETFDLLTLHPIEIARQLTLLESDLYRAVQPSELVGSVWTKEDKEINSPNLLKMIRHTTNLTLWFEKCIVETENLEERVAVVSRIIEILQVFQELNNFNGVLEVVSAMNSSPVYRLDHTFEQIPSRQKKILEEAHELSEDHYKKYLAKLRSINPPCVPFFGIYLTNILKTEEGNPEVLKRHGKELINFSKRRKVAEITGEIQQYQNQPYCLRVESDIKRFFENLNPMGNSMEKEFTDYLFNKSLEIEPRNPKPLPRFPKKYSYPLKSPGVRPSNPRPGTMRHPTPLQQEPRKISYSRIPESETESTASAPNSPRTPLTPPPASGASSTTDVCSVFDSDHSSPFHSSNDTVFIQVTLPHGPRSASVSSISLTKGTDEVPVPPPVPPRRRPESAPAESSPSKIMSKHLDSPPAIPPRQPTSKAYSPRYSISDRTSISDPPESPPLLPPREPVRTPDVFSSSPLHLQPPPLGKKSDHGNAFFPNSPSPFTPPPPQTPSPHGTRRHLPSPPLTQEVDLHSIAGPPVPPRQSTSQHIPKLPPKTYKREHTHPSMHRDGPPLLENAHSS
The experiment in a line: KRAS G12C::SOS1 protein-protein interaction (PPI) inhibition assay (HTRF binding kit).
Details: not given
In general terms: In TR-FRET formats the signal depends on donor and acceptor labels being close together.
`Cc1nnn(C)c1-c1cccc(-n2nc(C(=O)N[C@H](C)c3cc(N)cc(C(F)(F)F)c3)ccc2=O)c1` [Example 350, N-[(1R)-1-[3-amino-5-(trifluoromethyl)phenyl]ethyl]-1-[3-(3,5-dimethyltriazol-4-yl)phenyl]-6-oxo-pyridazine-3-carboxamide] gave an IC50 below 1 µM.

`C[C@@H](NC(=O)c1ccc(=O)n(-c2cccc(-c3ccn(C(F)F)n3)c2)n1)c1cccc(C(F)(F)CO)c1F` [Example 345, N-[(1R)-1-[3-(1,1-difluoro-2-hydroxy-ethyl)-2-fluoro-phenyl]ethyl]-1-[3-[1-(difluoromethyl)pyrazol-3-yl]phenyl]-6-oxo-pyridazine-3-carboxamide]: the IC50 is below 1 µM.

`CNCc1ccc(Cl)cc1-c1ccc([C@@H](C)NC(=O)c2ccc(=O)n(-c3cccnc3F)n2)s1` [Example 270, N-[(1R)-1-[5-[5-chloro-2-(methylaminomethyl)phenyl]-2-thienyl]ethyl]-1-(2-fluoro-3-pyridyl)-6-oxo-pyridazine-3-carboxamide] came in with an IC50 below 1 µM.

As to `CNCc1ccc(F)cc1-c1ccc([C@@H](C)NC(=O)c2ccc(=O)n(-c3cccc(C(=O)N(C)C)c3F)n2)s1` [Example 297, 1-[3-(dimethylcarbamoyl)-2-fluoro-phenyl]-N-[(1R)-1-[5-[5-fluoro-2-(methylaminomethyl)phenyl]-2-thienyl]ethyl]-6-oxo-pyridazine-3-carboxamide], the IC50 was below 1 µM.

For the compound `C[C@@H](NC(=O)c1ccc(=O)n(-c2ccncc2)c1)c1cc(N)cc(C(F)(F)F)c1` [Example 163, N-[(1R)-1-[3-amino-5-(trifluoromethyl)phenyl]ethyl]-6-oxo-1-(4-pyridyl)pyridine-3-carboxamide], the IC50 was below 1 µM.

For `C[C@@H](NC(=O)c1ccc(=O)n(-c2cccc(-c3nncn3C)c2)c1)c1cc(N)cc(C(F)(F)F)c1` [Example 348, N-[(1R)-1-[3-amino-5-(trifluoromethyl)phenyl]ethyl]-1-[3-(4-methyl-1,2,4-triazol-3-yl)phenyl]-6-oxo-pyridine-3-carboxamide], the IC50 was below 1 µM.

The compound `C[C@@H](NC(=O)c1ccc(=O)n(-c2cccnc2)c1)c1cc(N)cc(C(F)(F)F)c1` [Example 176, N-[(1R)-1-[3-amino-5-(trifluoromethyl)phenyl]ethyl]-6-oxo-1-(3-pyridyl)pyridine-3-carboxamide] gave an IC50 above 10 µM.

As to `C[C@@H](NC(=O)c1ccc(=O)n(-c2cccc(C(=O)N3CCCC3)c2F)n1)c1cc(N)cc(C(F)(F)F)c1` [Example 230], the IC50 was below 1 µM.

In the case of `COCCn1nc(C(=O)N[C@H](C)c2cc(N)cc(C(F)(F)F)c2)ccc1=O` [Example 222, N-[(1R)-1-[3-amino-5-(trifluoromethyl)phenyl]ethyl]-1-(2-methoxyethyl)-6-oxo-pyridazine-3-carboxamide], the IC50 is below 1 µM.

In turn, `C[C@@H](NC(=O)c1ccc(=O)n(-c2ccn(C)n2)n1)c1cc(N)cc(C(F)(F)F)c1` [Example 387, N-[(1R)-1-[3-amino-5-(trifluoromethyl)phenyl]ethyl]-1-(1-methylpyrazol-3-yl)-6-oxo-pyridazine-3-carboxamide] gave a half-maximal inhibitory concentration (IC50) below 1 µM.

For the compound `C[C@@H](NC(=O)c1ccc(=O)n(-c2ccncc2F)n1)c1cccc(C(F)(F)CO)c1F` [Example 361, N-[(1R)-1-[3-(1,1-difluoro-2-hydroxy-ethyl)-2-fluoro-phenyl]ethyl]-1-(3-fluoro-4-pyridyl)-6-oxo-pyridazine-3-carboxamide], the IC50 was below 1 µM.

`C[C@@H](NC(=O)c1nn(-c2ccccc2F)c(=O)cc1OCc1ccccc1)c1cccc(C(F)(F)CO)c1F` [Example 364, 4-benzyloxy-N-[(1R)-1-[3-(1,1-difluoro-2-hydroxy-ethyl)-2-fluorophenyl]ethyl]-1-(2-fluorophenyl)-6-oxo-pyridazine-3-carboxamide] came in with an IC50 of 1 to 10 µM.

`C[C@@H](NC(=O)c1ccc(=O)n(-c2cccc(-c3ncn(C)n3)c2)n1)c1cc(N)cc(C(F)(F)F)c1` [Example 323, N-[(1R)-1-[3-amino-5-(trifluoromethyl)phenyl]ethyl]-1-[3-(1-methyl-1,2,4-triazol-3-yl)phenyl]-6-oxo-pyridazine-3-carboxamide] returned an IC50 below 1 µM.

`CCn1nncc1-c1cccc(-n2nc(C(=O)N[C@H](C)c3cc(N)cc(C(F)(F)F)c3)ccc2=O)c1` [Example 327, N-[(1R)-1-[3-amino-5-(trifluoromethyl)phenyl]ethyl]-1-[3-(3-ethyltriazol-4-yl)phenyl]-6-oxo-pyridazine-3-carboxamide] gave an IC50 below 1 µM.

Take `C[C@@H](NC(=O)c1nn(-c2ccccc2)c(=O)c2cc[nH]c12)c1cc(N)cc(C(F)(F)F)c1` [Example 308, N-[(1R)-1-[3-amino-5-(trifluoromethyl)phenyl]ethyl]-4-oxo-5-phenyl-1H-pyrrolo [2,3-d] pyridazine-7-carboxamide]: the IC50 is below 1 µM.

With `C[C@@H](NC(=O)c1ccc(=O)n(-c2cc(-c3cnnn3C)ccc2F)n1)c1cccc(C(F)(F)CO)c1F` [Example 372, N-[(1R)-1-[3-(1,1-difluoro-2-hydroxy-ethyl)-2-fluoro-phenyl]ethyl]-1-[2-fluoro-5-(3-methyltriazol-4-yl)phenyl]-6-oxo-pyridazine-3-carboxamide], the IC50 is below 1 µM.

`CNCc1ccc(F)cc1-c1ccc([C@@H](C)NC(=O)c2ccc(=O)n(-c3cccnc3OC)n2)s1` [Example 407]: the IC50 is below 1 µM.

Compound `C[C@@H](NC(=O)c1ccc(=O)n(-c2cccc(-c3ccno3)c2)n1)c1cc(N)cc(C(F)(F)F)c1` [Example 342, N-[(1R)-1-[3-amino-5-(trifluoromethyl)phenyl]ethyl]-1-(3-isoxazol-5-ylphenyl)-6-oxo-pyridazine-3-carboxamide] returned an IC50 below 1 µM.

`C[C@@H](NC(=O)c1ccc(=O)n(-c2cccc(-c3nccs3)c2)n1)c1cc(N)cc(C(F)(F)F)c1` [Example 337, N-[(1R)-1-[3-amino-5-(trifluoromethyl)phenyl]ethyl]-6-oxo-1-(3-thiazol-2-ylphenyl)pyridazine-3-carboxamide] came in with an IC50 below 1 µM.

With `C[C@@H](NC(=O)c1ccc(=O)n(Cc2ccccc2)n1)c1cc(N)cc(C(F)(F)F)c1` [Example 227, N-[(1R)-1-[3-amino-5-(trifluoromethyl)phenyl]ethyl]-1-benzyl-6-oxo-pyridazine-3-carboxamide], the IC50 is below 1 µM.

Take `C[C@@H](NC(=O)c1ccc(=O)n(-c2ccccc2F)n1)c1cc(N)cc(C#N)c1F` [Example 216, N-[(1R)-1-(5-amino-3-cyano-2-fluoro-phenyl)ethyl]-1-(2-fluorophenyl)-6-oxo-pyridazine-3-carboxamide]: the concentration for half-maximal inhibition (IC50) is 1 to 10 µM.

As to `Cc1cc(C(=O)N[C@H](C)c2cc(N)cc(C(F)(F)F)c2)nn(-c2ccccc2)c1=O` [Example 214, N-[(1R)-1-[3-amino-5-(trifluoromethyl)phenyl]ethyl]-5-methyl-6-oxo-1-phenyl-pyridazine-3-carboxamide], the 50% inhibitory concentration (IC50) was below 1 µM.

`CNCc1ccc(F)cc1-c1ccc([C@@H](C)NC(=O)c2ccc(=O)n(-c3cccnc3NC)n2)s1` [Example 302, N-[(1R)-1-[5-[5-fluoro-2-(methylaminomethyl)phenyl]-2-thienyl]ethyl]-1-[2-(methylamino)-3-pyridyl]-6-oxo-pyridazine-3-carboxamide]: the IC50 is below 1 µM.

On to `COc1cccc(-n2nc(C(=O)N[C@H](C)c3cc(N)cc(C(F)(F)F)c3)ccc2=O)c1F` [Example 185, N-[(1R)-1-[3-amino-5-(trifluoromethyl)phenyl]ethyl]-1-(2-fluoro-3-methoxy-phenyl)-6-oxo-pyridazine-3-carboxamide], for which the concentration for half-maximal inhibition (IC50) is below 1 µM.

As to `COc1cnccc1-n1nc(C(=O)N[C@H](C)c2cc(N)cc(C(F)(F)F)c2)ccc1=O` [Example 145, N-[(1R)-1-[3-amino-5-(trifluoromethyl)phenyl]ethyl]-1-(3-methoxy-4-pyridyl)-6-oxo-pyridazine-3-carboxamide], the IC50 is below 1 µM.

The assay is the same for the next values; noted with them: read-out: KRAS ^G12C::SOS1 PPI assay (IC50 range, Grade); maximum concentration 3 µM, 8 concentrations, three replicates.
On to “N-[(1R)-1-[3-amino-5-(trifluoromethyl)phenyl]ethyl]-6-oxo-1-(3-phenylphenyl)pyridazine-3-carboxamide [Example 212]”, for which the IC50 lay within 1 to 10 µM.

As usually defined, the IC50 is the midpoint of a concentration-inhibition curve.
